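Where inhibition never reached the appropriate level, the endpoint shown equals the highest concentration tested. Otherwise, values were interpolated linearly from a five-concentration, 48-hour dose response in 96-well plates. GI50 marks 50% less growth. TGI: concentration producing complete growth inhibition.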

The first assay concerns M14 melanoma. Briefly: DTP human tumour cell line panel, 48 h.
A word on the GI50: it is the concentration at which growth is held to half of that of the control. Usually TGI stands for the concentration at which net growth stops. Read a low TGI as greater sensitivity of the cells. Regarding `CC(=O)OCC1OC(O[C@@H]2C[C@H]3C(C)(C)[C@H](OC(C)=O)CC[C@]3(C)[C@H]3CCC4=C([C@@H](C)C[C@@H](O)[C@H](O)C(C)(C)O)CC[C@@]4(C)[C@@]32C)C(O)C(O)C1O` (some centres undefined), the GI50 was 17.3 µM and the TGI is 31.4 µM.

Regarding `O=C(NNc1nc2c(F)cccc2n2cccc12)c1cnccn1`, the GI50 was 0.269 µM and the concentration for total growth inhibition (TGI) worked out at 11.7 µM.

Consider `CN=C(N)N/N=C(\c1ccccc1)c1ccc(Br)cc1`, for which the GI50 was 0.272 µM and the TGI came out at 0.872 µM.

`COc1cc(/C=C\[N+](=O)[O-])ccc1O`: the GI50 was 2.05 µM and the TGI worked out at 4.98 µM.

Regarding `C=CC(=O)N[C@H]1C=C(C)c2c(-c3cnc4ccccc4c3)c3c(N)ncnc3n2C1`, the GI50 was 10 µM and the TGI was determined as 32.4 µM.

For the molecule `C[C@@H]1CC[C@@H]2[C@@H]1[C@H](OC(=O)/C=C/c1ccccc1)[C@]1(c3ccccc3)C[C@@H](OC(=O)CO)[C@@]2(C)O1`, the GI50 was 16.2 µM and the TGI turned out to be 35.8 µM.

With `O=C(c1ccc2ccccc2c1)c1c(C(F)(F)F)n([O-])c2cc(Cl)c(Cl)cc2[n+]1=O`, the GI50 is 1.66 µM and the concentration for total growth inhibition (TGI) is 3.04 µM.

Turning to `O=C(CSc1nc2ccc([N+](=O)[O-])cc2[nH]1)Nc1ccc(F)c(Cl)c1`, the GI50 is 2.81 µM and the TGI is 12.4 µM.

For `C=C1C(=O)O[C@H]2[C@H]1CC/C(CNC(=O)c1c[nH]c3ccc(F)cc13)=C\CC[C@@]1(C)O[C@@H]21`, the GI50 was 1.04 µM and the concentration for total growth inhibition (TGI) came out at 2.33 µM.

As to `Cc1nn(-c2ccc(F)cc2)c2ncnc(Nc3ccc(NC(=O)Nc4ccc(Cl)c(C(F)(F)F)c4)cc3)c12`, the GI50 was 3.03 µM and the TGI turned out to be 11.6 µM.

`O=C(CCN1CCN(c2cnc3ccccc3n2)CC1)c1csc2ccccc12`: the GI50 was 75.2 µM and the TGI is over 100 µM.

On to `Cc1ccn2c3c(c(C(=O)O)c2c1)C(=O)c1ccccc1C3=O`, for which the GI50 is 1.11 µM and the TGI is 2.64 µM.

For the molecule `COc1cc2ncn(-c3cc(OCc4ccccc4Cl)c(C(N)=O)s3)c2cc1OC`, the concentration for 50% growth inhibition (GI50) is 0.164 µM and the TGI is over 25 µM.

As to `Cc1ccc2c(C(C[N+](=O)[O-])c3cccs3)c(-c3ccccc3)[nH]c2c1` (centres undefined), the GI50 was 1.28 µM and the TGI is 5.57 µM.

A further assay relates to MALME-3M melanoma. Briefly: DTP human tumour cell line panel, 48 h.
Consider `CC(=O)OCC1OC(O[C@@H]2C[C@H]3C(C)(C)[C@H](OC(C)=O)CC[C@]3(C)[C@H]3CCC4=C([C@@H](C)C[C@@H](O)[C@H](O)C(C)(C)O)CC[C@@]4(C)[C@@]32C)C(O)C(O)C1O` (some centres undefined), for which the GI50 is 16.5 µM and the total growth inhibition concentration (TGI) is 30.4 µM.

As for `O=C(NNc1nc2c(F)cccc2n2cccc12)c1cnccn1`, the GI50 is 1.63 µM and the TGI was over 77.1 µM.

Take `CN=C(N)N/N=C(\c1ccccc1)c1ccc(Br)cc1`: the GI50 is 1.13 µM and the TGI is 4.24 µM.

For `COc1cc(/C=C\[N+](=O)[O-])ccc1O`, the GI50 was 1.91 µM and the TGI is 4.91 µM.

For the molecule `C=CC(=O)N[C@H]1C=C(C)c2c(-c3cnc4ccccc4c3)c3c(N)ncnc3n2C1`, the GI50 is 11.6 µM and the TGI is 25.7 µM.

With `C[C@@H]1CC[C@@H]2[C@@H]1[C@H](OC(=O)/C=C/c1ccccc1)[C@]1(c3ccccc3)C[C@@H](OC(=O)CO)[C@@]2(C)O1`, the GI50 is 16.5 µM and the TGI was determined as 31.4 µM.

For the molecule `O=C(c1ccc2ccccc2c1)c1c(C(F)(F)F)n([O-])c2cc(Cl)c(Cl)cc2[n+]1=O`, the GI50 was 1.58 µM and the TGI amounted to 3 µM.

As for `O=C(CSc1nc2ccc([N+](=O)[O-])cc2[nH]1)Nc1ccc(F)c(Cl)c1`, the GI50 is 1.75 µM and the concentration for total growth inhibition (TGI) turned out to be 6.96 µM.

In the case of `C=C1C(=O)O[C@H]2[C@H]1CC/C(CNC(=O)c1c[nH]c3ccc(F)cc13)=C\CC[C@@]1(C)O[C@@H]21`, the GI50 is 1.41 µM and the TGI came out at 3.3 µM.

For the molecule `Cc1nn(-c2ccc(F)cc2)c2ncnc(Nc3ccc(NC(=O)Nc4ccc(Cl)c(C(F)(F)F)c4)cc3)c12`, the GI50 is 1.76 µM and the TGI is 4.21 µM.

Turning to `O=C(CCN1CCN(c2cnc3ccccc3n2)CC1)c1csc2ccccc12`, the GI50 is 24.9 µM and the TGI amounted to 69.1 µM.

Turning to `Cc1ccn2c3c(c(C(=O)O)c2c1)C(=O)c1ccccc1C3=O`, the GI50 is 0.48 µM and the TGI came to 1.92 µM.

With `COc1cc2ncn(-c3cc(OCc4ccccc4Cl)c(C(N)=O)s3)c2cc1OC`, the GI50 is over 25 µM and the TGI was over 25 µM.

As for `Cc1ccc2c(C(C[N+](=O)[O-])c3cccs3)c(-c3ccccc3)[nH]c2c1` (centres undefined), the GI50 was 1.55 µM and the TGI turned out to be 6.12 µM.

The subject of a further assay is CCRF-CEM leukemia. Briefly: DTP human tumour cell line panel, 48 h.
On to `CC(=O)OCC1OC(O[C@@H]2C[C@H]3C(C)(C)[C@H](OC(C)=O)CC[C@]3(C)[C@H]3CCC4=C([C@@H](C)C[C@@H](O)[C@H](O)C(C)(C)O)CC[C@@]4(C)[C@@]32C)C(O)C(O)C1O` (some centres undefined), for which the GI50 is 15.9 µM and the TGI came out at 34.1 µM.

As to `O=C(NNc1nc2c(F)cccc2n2cccc12)c1cnccn1`, the GI50 was 0.126 µM.

Regarding `CN=C(N)N/N=C(\c1ccccc1)c1ccc(Br)cc1`, the GI50 was 0.32 µM and the TGI came out at 4.66 µM.

`COc1cc(/C=C\[N+](=O)[O-])ccc1O`: the GI50 was 2.25 µM and the concentration for total growth inhibition (TGI) was 7.23 µM.

Consider `C=CC(=O)N[C@H]1C=C(C)c2c(-c3cnc4ccccc4c3)c3c(N)ncnc3n2C1`, for which the GI50 was 22.3 µM and the total growth inhibition concentration (TGI) is over 100 µM.

As to `C[C@@H]1CC[C@@H]2[C@@H]1[C@H](OC(=O)/C=C/c1ccccc1)[C@]1(c3ccccc3)C[C@@H](OC(=O)CO)[C@@]2(C)O1`, the GI50 is 20.8 µM and the concentration for total growth inhibition (TGI) was 84.2 µM.

In the case of `O=C(c1ccc2ccccc2c1)c1c(C(F)(F)F)n([O-])c2cc(Cl)c(Cl)cc2[n+]1=O`, the GI50 was 2.41 µM and the TGI came out at 4.78 µM.

The record behind these values is PubChem BioAssay (NCI).
